How the values were obtained:
[1] = system: grossly obese and glucose intolerant NZO female mice; assay: Weight loss in grossly obese mice; type: in vivo, mouse; settings: 0.1 mg/kg every other day for four weeks; vs vehicle, p<0.05
Protocol: Data shown are mean±SEM of changes in body mass in mice administered tacrolimus (0.1 mg/kg every other day) for four weeks starting at week 16 (N=10/group). Statistical difference between groups was measured by one-way ANOVA at 95% confidence.
For studies on a grossly obese state, mice were maintained on the 60% high fat diet for 24 weeks starting at 7 weeks of age and designated as being type II diabetic according to methods described above.

[2] = system: high fat fed female NZO mice; assay: Ovarian histology of macrolide-treated chronically high fat fed NZO mice; type: in vivo, mouse; settings: chronically high fat diet fed NZO mice
Protocol: Statistical differences between groups were measured by two-way analysis of variance (ANOVA) followed by Bonferroni post-hock t-test comparing effect of all tested macrolides on mean follicular structure counts/unit area at 95% confidence. Scale bars=200 μm for B, D, F, G, H, I, J and 50 μm for A, C, E. N=10 (HFD-NZO), 6 per treatment group. A, C and E are higher magnifications of B, D and F respectively. * denoting ovarian cyst(s).
(§1) For the comparative evaluation of other macrolide drugs to tacrolimus, mice starting at 7 weeks of age were maintained on the high fat diet for a total of 13 weeks of study period. Mice were entered into the experiments when determined to be glucose intolerant as described above. Methods of drug administration and other experimental methods were as described above.

[3] = system: female NZO mice fed a continuous high fat diet; assay: Weight loss, comparison of macrolides; type: in vivo, mouse; settings: tacrolimus 0.05 or 0.1 mg/kg, pimecrolimus 0.1 mg/kg, sirolimus 0.1 mg/kg s.c. every other day for three weeks; vs vehicle
From the text: as §1

[4] = rats, subcutaneous 0.1 mg/kg every other day (q2d); cited from earlier work
[5] = system: NZO mice fed a high fat diet; assay: Fasting serum glucose, fasting serum insulin and glucose tolerance, comparison of macrolides; type: in vivo, mouse; settings: vs vehicle
Protocol: (§2) Female mice were administered tacrolimus (0.1 mg/kg or 0.05 mg/kg, n=6/group), vehicle (n=10), pimecrolimus (0.1 mg/kg, n=6) or sirolimus (0.1 mg/kg, n=6) subcutaneously every other day for 3 weeks.
as §1
Glucose Tolerance Test (GTT): was performed according to standard protocol (Ayala et al 2010). Briefly, basal glucose levels were measured for conscious mice individually caged in 1000 cc plastic mouse caging using a one-touch ultra glucose strips and meter (Acqui-check Aviva, Roche, Montreal, Canada) and approximately 30 microliters of blood obtained via tail venipuncture prior to fasting for six hours in cages equipped with hardwood bedding. Fasting blood glucose was recorded at the end of the six hours fasting period. Mice were then tested for oral glucose tolerance (OGTT) or for insulin sensitivity (Si). For OGTT alert mice were then given 20% D-glucose (2 g/kg body weight) sterile syrup administered orally. For Si experiments mice were given 20% D-glucose (2 g/kg body weight) sterile syrup by intraperitoneal administration through a 1 ml D29 gage “½” insulin syringe (Fisher Scientific, Montreal, Canada). Then after, blood glucose was recorded at 15, 30, 45, 60, 90 and 120 minutes respectively. For Si experiments blood glucose was determined only at 15 minutes. Glucose tolerance graphs were generated by blotting mean±standard error of the mean (SEM) of the recorded glucose data per mouse per minute collection time. One way analysis of variance (ANOVA) followed by student t-test was performed to determine alpha values for statistical differences among mean blood glucose values across experimental mice groups.
Fasting immuno-reactive mouse insulin levels were quantitatively determined in citrated platelet-free plasma samples obtained from 6 hours-fasting mice using an Ultrasensitive mouse Insulin Eliza kit (#90080, Crystal chem., IL, USA) according to the manufacturer instructions. Briefly, platelet-free plasma were isolated from freshly obtained citrated whole blood samples of fasting mice and the provided insulin standards were incubated overnight on a shaking platform at 4 C^0 in a 96 wells plate coated with Guinea pig anti-insulin. Afterwards, unbound sample materials were thoroughly washed with the supplied wash buffers and the bound guinea pig anti-insulin/mouse insulin complex immobilized to the microplate wells were incubated with Horseradish peroxidase (HRP)-conjugated anti-insulin antibody for 40 minutes at room temperature with continuous agitation. Excess unbound HRP-conjugated anti-insulin antibodies were then washed excessively with wash buffers and the HRP-mediated color reaction was developed with the addition of 3,3′,5,5′ tetramethylbenzidine (TMB) substrate solution. The amount of insulin (ng/ml) present in the test samples were then measured via interpolation using the standard curve generated by plotting absorbance (at A^0450-A^0635) versus the corresponding concentration of a wide range (0.1-12.8 ng/ml) of mouse insulin standards according to the provider's instructions. Graphic representation of differences in mean±sem of plasma insulin among different groups of mice were blotted using Prism5 (La Jolla, Calif., USA) software and statistically significant differences (at 95% confidence) were calculated for the different test groups of mice using one way ANOVA followed by Bonferroni modified student t-test comparing differences between individual experimental groups.

[6] = system: type 2 diabetes NZO mouse model; assay: HOMA-IR, HOMA-B and insulin sensitivity index (Si); type: in vivo
Protocol: as §2
HOMA IR=fasting glucose (mmol/L)×fasting insulin ([…])/22.5 according to the method of Bonora E et al., 2000. Pancreatic β-Cell function (HOMA-B) was calculated according to the method of Tresaco B et al., 2005, HOMA-B=[20×[…]). Insulin sensitivity (Si) was determined according to the method of Matthews D et al., 1985. Si=[basal glucose]−[glucose 15 min]/15).

[7] = 0.1 mg/kg s.c. every other day for 3 weeks

For C=CC[C@@H]1/C=C(\C)C[C@H](C)C[C@H](OC)[C@H]2O[C@@](O)(C(=O)C(=O)N3CCCC[C@H]3C(=O)O[C@H](/C(C)=C/[C@@H]3CC[C@@H](O)[C@H](OC)C3)[C@H](C)[C@@H](O)CC1=O)[C@H](C)C[C@@H]2OC [tacrolimus], the weight loss [1] was “induced a significant weight loss”, the “follicular growth pattern in the ovaries” value [2] was “restored follicular growth pattern” and the ovarian cyst formation ([2]; p<0.001) was “inhibited the development of ovarian cysts”. The ovarian follicular atresia ([2]; vs untreated HFD-NZO) was “significantly inhibited ovarian follicular atresia (p<0.01)”, the weight loss [3] was “significantly induced weight loss” and the maximal blood concentration [4] was 0.6 nanograms/ml. The “fasting basal serum glucose” value [5, 7] was “normalized fasting basal serum glucose concentrations”, the “fasting basal serum insulin” value [5, 7] was “significantly reduced fasting basal serum insulin concentrations” and the “insulin secretion in response to a hyperglycemic challenge” value ([5]; tacrolimus 0.1 or 0.05 mg/kg, pimecrolimus 0.1 mg/kg, sirolimus 0.1 mg/kg s.c. every other day for 3 weeks) was “significantly improved insulin secretion”. For the same molecule, the “insulin resistance (HOMA-IR)” value ([6]; p<0.001 vs vehicle) was “significantly reduced insulin resistance”, the “insulin sensitivity (Si)” value ([6]; p<0.01 vs vehicle) was “enhanced insulin sensitivity” and the “pancreatic β-cell function (HOMA-B)” value ([6]; p<0.05 vs vehicle) was “enhanced pancreatic β-cell function”.
